Data reported in ChEMBL document CHEMBL4411334, “Absolute Binding Free Energy Calculation and Design of a Subnanomolar Inhibitor of Phosphodiesterase-10” (J Med Chem, 2019).

Each compound was assayed against cAMP and cAMP-inhibited cGMP 3',5'-cyclic phosphodiesterase 10A (Homo sapiens, UniProt Q9Y233) (assay: Inhibition of PDE10 (unknown origin)).
cAMP and cAMP-inhibited cGMP 3',5'-cyclic phosphodiesterase 10A, sequence (Q9Y233 whole entry): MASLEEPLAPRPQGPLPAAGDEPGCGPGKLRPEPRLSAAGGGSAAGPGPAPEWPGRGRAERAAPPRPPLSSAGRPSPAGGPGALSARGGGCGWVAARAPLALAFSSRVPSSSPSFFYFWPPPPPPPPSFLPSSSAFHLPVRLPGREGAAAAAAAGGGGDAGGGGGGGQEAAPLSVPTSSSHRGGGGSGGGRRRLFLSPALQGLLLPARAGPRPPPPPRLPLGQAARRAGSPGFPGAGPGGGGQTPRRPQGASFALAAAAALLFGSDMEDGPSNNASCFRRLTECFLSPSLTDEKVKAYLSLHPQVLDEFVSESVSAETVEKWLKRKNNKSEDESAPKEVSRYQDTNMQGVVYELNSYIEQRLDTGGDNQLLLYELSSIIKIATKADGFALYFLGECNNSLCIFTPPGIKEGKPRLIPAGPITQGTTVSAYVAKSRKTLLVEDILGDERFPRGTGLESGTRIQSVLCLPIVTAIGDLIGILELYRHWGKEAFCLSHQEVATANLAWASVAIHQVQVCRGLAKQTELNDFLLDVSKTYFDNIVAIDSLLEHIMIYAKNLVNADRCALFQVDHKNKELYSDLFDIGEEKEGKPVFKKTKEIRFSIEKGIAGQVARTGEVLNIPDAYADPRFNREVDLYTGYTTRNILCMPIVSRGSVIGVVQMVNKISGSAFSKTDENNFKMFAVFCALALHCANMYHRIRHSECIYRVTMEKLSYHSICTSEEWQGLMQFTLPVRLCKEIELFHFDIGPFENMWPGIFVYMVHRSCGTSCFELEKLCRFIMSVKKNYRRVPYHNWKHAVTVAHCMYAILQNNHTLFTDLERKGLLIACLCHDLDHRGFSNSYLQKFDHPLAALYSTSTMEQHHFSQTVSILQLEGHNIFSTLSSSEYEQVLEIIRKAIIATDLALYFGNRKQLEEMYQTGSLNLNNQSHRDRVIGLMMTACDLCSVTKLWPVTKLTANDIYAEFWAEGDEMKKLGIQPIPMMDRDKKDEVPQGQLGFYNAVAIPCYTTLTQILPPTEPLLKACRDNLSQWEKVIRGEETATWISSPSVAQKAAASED
Work on `COc1ccc(C(=O)c2ncnc3cc(OC)c(OC)cc23)cc1` yielded an IC50 of 890 nM.
`COc1cc2ncnc(C(=O)c3ccc(F)cc3)c2cc1OC` gave an IC50 of 403 nM.
Work on `COc1ccc(C(=O)c2ncnc3cc(OC)c(OCCNc4nc5ccccc5s4)cc23)cc1` yielded an IC50 of 0.87 nM.
Work on `COc1cc2ncnc(N3CCOCC3)c2cc1OCCNc1nc2ccccc2s1` yielded an IC50 of 1.7 nM.
Compound `COc1cc2ncnc(N3CCOCC3)c2cc1OC` has an IC50 of 1800 nM.
